Laboratory results taken from patent publication US10583130B2, “Pharmaceutical formulations compromising nitrocatechol derivatives and methods of making thereof” (BIAL—Portela & Cᵃ, S.A., priority 2009, dated 2020).

Columns and labels:
[1] = Bulk / apparent density (m/V0); type: physicochemical; conditions: prior to granulation and/or formulation
Text: It is within the ability of one of skill in the art to determine the bulk density of a compound or composition using methods generally accepted in the art. However, suitable methods include, for example, the European Pharmacopeia edition 6, Test 2.9.15 “apparent volume,” pages 285-286, EDQM, 2007, and USP 31, vol. 1 test <616> page 231-232, The United States Pharmacopeia Convention, 2008. An example of a suitable method is described below:
Apparatus: • settling apparatus capable of producing in 1 minute 250±15 taps from a height of 3±0.2 mm. The support for the graduated cylinder with its holder, has a mass of 450±5 g • a 250 ml graduated cylinder (2 ml intervals) with a mass of 220±40 g
Method: Into a dry cylinder, introduce without compacting, 100.0 g (m g) of the test substance. Secure the cylinder in its holder. Read the unsettled apparent volume (V0) to the nearest milliliter. Carry out 10, 500 and 1250 taps and read the corresponding volumes V10, V500, V1250, to the nearest milliliter. If the difference between V500 and V1250 is greater than 2 ml, carry out another 1250 taps.
Alternatively, if it is not possible to select 100.0 g, select a test sample of any mass but with a volume between 50 ml and 250 ml, measure its apparent volume, V0 as described above, and weigh the sample and specify the mass in the expression of results. Bulk/apparent density may then be determined in g/ml using the following formula: m/V0 where m is the mass in grams and V0 the unsettled apparent volume.
(§1) The granules and final compositions were evaluated for bulk and tapped density using the methods described above. Flowability was also accessed by testing the flow rate through an orifice described in USP 31, vol. 1, test <1174>, The United States Pharmacopeia Convention, 2008. The flowability was measured as the mass per time flowing through the 10 mm diameter opening of a glass funnel.

[2] = Flowability: flow rate through 10 mm orifice of a glass funnel (USP <1174>); type: physicochemical; conditions: API before granulation
Text: It is within the ability of one of skill in the art to determine the flowability of a compound or composition using methods generally accepted in the art. However, suitable methods include but are not limited to, testing the flow rate through an orifice described in USP 31, vol. 1, test <1174>, The United States Pharmacopeia Convention, 2008, in which case, the flowability may be measured as the mass per time flowing through the 10 mm diameter opening of a glass funnel.
as §1

Row | SMILES | bulk density of the API alone [1] | bulk density of the API alone ([1]; listed as 2,5-dichloro-3-(5-(3,4-dihydroxy-5-nitrophenyl)-1,2,4-oxadiazol-3-yl)-4,6-dimeth) | flow of the API alone [2]
1 | Cc1nc(Cl)c(-c2noc(-c3cc(O)c(O)c([N+](=O)[O-])c3)n2)c(C)c1Cl [5-[3-(2,5-dichloro-4,6-dimethylpyridin-3-yl)-[1,2,4]oxadiazol-5-yl]-3-nitrobenzene-1,2-diol] | around 0.2 g/ml |  | 
2 | Cc1c(Cl)c(C)[n+]([O-])c(Cl)c1-c1noc(-c2cc(O)c(O)c([N+](=O)[O-])c2)n1 [API, 2,5-dichloro-3-(5-(3,4-dihydroxy-5-nitrophenyl)-1,2,4-oxadiazol-3-yl)-4,6-dimethylpyridine 1-oxide] | < 0.1 g/mL | less than 0.1 g/ml | no flow
